Assay results from patent US7713994B2 (Wyeth LLC, priority 2005, dated 2010).
Values joined by “and” are separate entries in the source; they are usually repeats but may differ in a detail not shown here. Identical values can stand only once. Like-named read-outs stand apart in the source and are kept apart here.

Legend:
[1] = target: T1, cyclin B/CDK1 enzyme (Homo sapiens, UniProt P06493); test: CDK1 ELISA kinase assay (phospho-Rb ser 795 detection); format: biochemical
T1 construct: purchased New England BioLabs; host or cells: Sf9 insect cells, recombinant baculovirus
Method in brief: (§1)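 Screening was done at 10 ug/ml compound. Each partially purified cyclin/CDK complex, produced in baculovirus-infected Sf9 cells, phosphorylated a coated GST-Rb C-terminal fragment with 200 μM ATP, and Ser795 phosphorylation was quantified by HRP-ELISA at 450 nm.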

[2] = tested on: MCF-7; test: Cytotoxicity assay (SRB), MCF-7; format: cell-based; details: Homo sapiens, MCF7, 72 h, read-out: In Vitro Cellular Activity IC50 MCF-7
Method in brief: (§2)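 Overnight-seeded monolayers (4000–12000 cells/well by line) receive compound in 5% FBS medium at 37 °C, 7% CO2. After 3 d, or 6 d for BT474, cellular protein is fixed with cold TCA, stained with SRB and read at 540 nm against untreated wells.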

[3] = tested on: BT474; test: Cytotoxicity assay (SRB), BT474; format: cell-based; details: Homo sapiens, BT-474, 144 h, read-out: In Vitro Cellular Activity IC50 BT474
Method in brief: as §2

[4] = I.V. and P.O. Dosing in Mice; format: in vivo; details: for AUC(0-inf) / bioavailability: mouse, in vivo; for bioavailability: po 50 mg/kg vs i.v. 2 mg/kg
[5] = target: T2, cyclin E/CDK2 enzyme (Homo sapiens, UniProt P24941); test: CDK2 ELISA kinase assay (phospho-Rb ser 795 detection); format: biochemical
T2 construct: made in house; host or cells: Sf9 insect cells, recombinant baculovirus
Method in brief: as §1

[6] = tested on: LoVo; test: Cytotoxicity assay (SRB), LoVo; format: cell-based; details: Homo sapiens, LoVo, 72 h, read-out: In Vitro Cellular Activity IC50 LOVO
Method in brief: as §2

[7] = target: T3, cyclin D1/cdk 4 enzyme (Homo sapiens, UniProt P11802); test: CDK4 ELISA kinase assay (phospho-Rb ser 795 detection); format: biochemical
T3 construct: made in house; host or cells: Sf9 insect cells, recombinant baculovirus
Method in brief: as §1

[8] = tested on: HCT-116; test: Cytotoxicity assay (SRB), HCT-116; format: cell-based; details: Homo sapiens, HCT-116, 72 h, read-out: In Vitro Cellular Activity IC50 HCT116
Method in brief: as §2

[9] = In Vitro Enzyme Assay, cyclin B/CDK1, read-out: CDK1 IC50
[10] = iv, 2 mg/kg, dose i.v. 2 mg/kg, read-out: aucinf obs (i.v.)
[11] = po, 50 mg/kg, dose po 50 mg/kg, read-out: aucinf obs (po)
[12] = In Vitro Enzyme Assay, cyclin E/CDK2, read-out: CDK2 IC50
[13] = In Vitro Enzyme Assay, cyclin D1/cdk 4, read-out: CDK4 IC50
[14] = In Vitro Enzyme Assays, read-out: CDK1 IC50
[15] = dose i.v. 2 mg/kg, second value, (methocel/tween)
[16] = In Vitro Enzyme Assays, read-out: CDK2 IC50
[17] = In Vitro Enzyme Assays, 200 μM ATP, read-out: CDK4 IC50

T3 sequence (P11802 whole entry, species assumed): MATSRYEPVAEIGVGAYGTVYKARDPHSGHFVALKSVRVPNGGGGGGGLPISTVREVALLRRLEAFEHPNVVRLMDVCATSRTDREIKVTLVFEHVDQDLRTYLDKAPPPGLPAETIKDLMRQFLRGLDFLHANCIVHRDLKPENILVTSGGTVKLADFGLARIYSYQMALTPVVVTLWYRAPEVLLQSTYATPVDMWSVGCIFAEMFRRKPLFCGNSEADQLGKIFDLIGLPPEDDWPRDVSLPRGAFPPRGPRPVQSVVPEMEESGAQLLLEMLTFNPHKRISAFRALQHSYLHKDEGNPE
T3 sequence (P24385 whole entry partner, species assumed): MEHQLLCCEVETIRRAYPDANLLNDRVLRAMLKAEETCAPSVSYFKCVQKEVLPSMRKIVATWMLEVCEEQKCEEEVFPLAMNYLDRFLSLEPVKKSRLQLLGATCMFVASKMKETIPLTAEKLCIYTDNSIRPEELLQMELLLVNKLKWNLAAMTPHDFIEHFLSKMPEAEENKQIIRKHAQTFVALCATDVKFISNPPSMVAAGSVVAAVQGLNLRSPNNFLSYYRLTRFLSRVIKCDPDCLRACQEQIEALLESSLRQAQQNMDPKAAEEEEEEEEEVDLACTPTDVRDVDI
T1 sequence (P06493 whole entry): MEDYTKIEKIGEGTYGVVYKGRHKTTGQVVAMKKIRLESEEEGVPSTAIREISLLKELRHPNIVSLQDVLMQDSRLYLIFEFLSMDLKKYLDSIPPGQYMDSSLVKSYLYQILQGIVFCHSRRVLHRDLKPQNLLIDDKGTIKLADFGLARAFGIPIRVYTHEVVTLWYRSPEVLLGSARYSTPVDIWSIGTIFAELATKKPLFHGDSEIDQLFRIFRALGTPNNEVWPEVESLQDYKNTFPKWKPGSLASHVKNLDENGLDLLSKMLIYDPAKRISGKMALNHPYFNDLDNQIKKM
T1 sequence (P14635 whole entry partner): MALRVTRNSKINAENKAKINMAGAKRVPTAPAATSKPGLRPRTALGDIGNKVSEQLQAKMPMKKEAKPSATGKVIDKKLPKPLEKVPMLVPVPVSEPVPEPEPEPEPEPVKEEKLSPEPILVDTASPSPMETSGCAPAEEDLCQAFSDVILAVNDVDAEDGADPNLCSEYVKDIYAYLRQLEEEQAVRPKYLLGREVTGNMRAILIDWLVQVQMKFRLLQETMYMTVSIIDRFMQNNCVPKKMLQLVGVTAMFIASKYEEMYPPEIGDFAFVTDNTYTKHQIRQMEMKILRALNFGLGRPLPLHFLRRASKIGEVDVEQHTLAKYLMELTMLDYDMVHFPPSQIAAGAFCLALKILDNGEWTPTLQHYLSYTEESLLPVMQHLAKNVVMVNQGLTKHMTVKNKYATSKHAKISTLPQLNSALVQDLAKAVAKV

SMILES | IC50 [1, 9] | Cl_obs ([4]; dose i.v. 2 mg/kg) | Vss_obs ([4]; dose i.v. 2 mg/kg) | HL_Lambda_z ([4]; dose po 50 mg/kg) | AUC(0-inf) [4, 10] | AUC(0-inf) [4, 11] | bioavailability ([4]; po, 50 mg/kg) | IC50 [5, 12] | IC50 [7, 13] | IC50 ([2]; MCF-7 cells, 3 days, SRB) | IC50 ([3]; BT474 cells, 6 days, SRB) | IC50 ([6]; LoVo cells, 3 days, SRB) | IC50 ([8]; HCT116 cells, 3 days, SRB) | IC50 [1, 14] | IC50 ([2]; MCF-7 cells, SRB, three days) | IC50 ([3]; BT474 cells, SRB, 6 days) | IC50 [5, 16] | IC50 ([6]; LoVo cells, SRB, three days) | IC50 ([8]; HCT116 cells, SRB, three days) | melting point | other results
O=C1NC(=O)c2ccc(I)cc2/C1=C/NCc1ccn(-c2ccsc2)c(=O)c1 [Example 539, (4Z)-6-Iodo-4-[({[2-oxo-1-(3-thienyl)-1,2-dihydropyridin-4-yl]methyl}amino)methylene]isoquinoline-1,3(2H,4H)-dione] | > 50 µM | 21 mL/min/kg | 0.3 L/kg | 0.8 h | 1560 ng·h/mL | 44 ng·h/mL | 0.12% | 41.5 µM | 290 nM |  |  |  |  |  |  |  |  |  |  |  | IC50 [2]: 240 nM; IC50 [3]: 330 nM; IC50 [6]: 160 nM; IC50 [8]: 340 nM
O=C1NC(=O)c2ccc(I)cc2/C1=C/NCc1ccn(-c2ccccc2)c(=O)c1 [Example 517, (4Z)-6-Iodo-4-({[(2-oxo-1-phenyl-1,2-dihydropyridin-4-yl)methyl]amino}methylene)isoquinoline-1,3(2H,4H)-dione] | 29.6 µM | 14 mL/min/kg | 0.5 L/kg | 0.5 h | 2360 ng·h/mL | 39 ng·h/mL | 0.07% | > 50 µM and 41.5 µM | 270 nM | 790 nM | 90 nM | 170 nM | 250 nM |  |  |  |  |  |  |  | 
CCCOc1cnc(CNC=C2C(=O)NC(=O)c3ccc(I)cc32)cc1O [Example 364, 4-{[(4-Hydroxy-5-propoxy-pyridin-2-ylmethyl)-amino]-methylene}-6-iodo-4H-isoquinoline-1,3-dione] |  | 3 mL/min/kg | 0.2 L/kg | 1.8 h | 11000 ng·h/mL | 17200 ng·h/mL | 6.3% |  |  |  |  |  |  | 25.3 µM | 880 nM | 340 nM | 1.6 µM | 520 nM | 730 nM |  | Cl_obs [4, 15]: 2.1 mL/min/kg; Vss_obs [4, 15]: 0.1 L/kg; HL_Lambda_z ([4]; dose po 50 mg/kg, second value, (methocel/tween)): 2.4 h; AUC(0-inf) ([4]; iv, 2 mg/kg, dose i.v. 2 mg/kg, second value, (methocel/tween), read-out: aucinf obs (i.v.)): 15800 ng·h/mL; AUC(0-inf) ([4]; po, 50 mg/kg, dose po 50 mg/kg, second value, (methocel/tween), read-out: aucinf obs (po)): 5350 ng·h/mL; bioavailability ([4]; po, 50 mg/kg, second value, (methocel/tween)): 1.4%; IC50 [7, 17]: 30 nM
CC(C)(C)c1ccc2c(c1)/C(=C/NCc1ccc(-c3ccoc3)c(O)c1)C(=O)NC2=O [Example 535, 6-tert-Butyl-4-[(4-furan-3-yl-3-hydroxy-benzylamino)-methylene]-4H-isoquinoline-1,3. -dione] | 13.1 µM | 140 mL/min/kg | 4.1 L/kg | 1.9 h | 238 ng·h/mL | 1240 ng·h/mL | 21% | 4 µM | 20 nM | 2000 nM | 510 nM | 630 nM | 860 nM |  |  |  |  |  |  |  | 
O=C1NC(=O)c2ccc(I)cc2/C1=C/NCc1ccc(-c2ccoc2)c(O)c1 [Example 506, 4-[(4-Furan-3-yl-3-hydroxy-benzylamino)-methylene]-6-iodo-4H-isoquinoline-1,3-dione] |  | 79 mL/min/kg | 6.7 L/kg | 2.6 h | 423 ng·h/mL | 5590 ng·h/mL | 53% | 4.7 µM |  |  | 290 nM | 410 nM |  |  |  |  |  |  |  |  | 
O=C1NC(=O)c2ccc(I)cc2/C1=C/NCc1ccn(-c2ccoc2)c(=O)c1 [Example 525, (4Z)-4-[({[1-(3-Furyl)-2-oxo-1,2-dihydropyridin-4-yl]methyl}amino)methylene]-6-iodoisoquinoline-1,3(2H,4H)-dione] | 11.6 µM | 12 mL/min/kg | 0.4 L/kg | 3.4 h | 2750 ng·h/mL | 12000 ng·h/mL | 17% | 2.6 µM | 60 nM | 710 nM | 140 nM | 450 nM | 710 nM |  |  |  |  |  |  |  | 
CCCOc1ccc(CN/C=C2\C(=O)NC(=O)c3ccc(I)cc32)cc1O [Example 178, (4Z)-4-{[(3-Hydroxy-4-propoxybenzyl)amino]methylene}-6-iodoisoquinoline-1,3(2H,4H)-dione] |  | 33 mL/min/kg | 1.5 L/kg | 6.1 h | 999 ng·h/mL | 360 ng·h/mL | 14% |  |  |  |  |  |  | 13.9 µM | 1800 nM | 620 nM |  | 740 nM | 650 nM |  | 
CN1CCN(c2cnc(N/C=C3\C(=O)NC(=O)c4ccc(-c5ccoc5)cc43)cn2)CC1 [Example 508, (4Z)-6-(3-Furyl)-4-({[5-(4-methylpiperazin-1-yl)pyrazin-2-yl]amino}methylene)isoquinoline-1,3(2H,4H)-dione] | 2.2 µM |  |  |  |  |  |  | > 50 µM | 1300 nM | 1300 nM | 3000 nM | 1100 nM | 950 nM |  |  |  |  |  |  | 226 to 227 °C | 
CCCOc1ccc(CN/C=C2\C(=O)N(O)C(=O)c3ccccc32)cc1O [Example 230, 2-Hydroxy-4-[(3-hydroxy-4-propoxy-benzylamino)-methylene]-4H-isoquinoline-1,3-dione] |  |  |  |  |  |  |  |  |  |  |  |  |  | > 50 µM | 3100 nM | 6400 nM | 38 µM | 3800 nM | 2100 nM | 176 to 178 °C | IC50 [7, 17]: 27700 nM
CO[C@@H]1CCN(Cc2ccc(N/C=C3\C(=O)NC(=O)c4ccc(I)cc43)cc2)C1 [Example 264, (4Z)-6-Iodo-4-{[(4-{[(3R)-3-methoxypyrrolidin-1-yl]methyl}phenyl)amino]methylene}isoquinoline-1,3(2H,4H)-dione] |  |  |  |  |  |  |  |  |  |  |  |  |  | > 50 µM | 2000 nM | 2200 nM | > 50 µM | 8800 nM | 4400 nM | 160 to 161 °C | IC50 [7, 17]: 1000 nM
COc1cc(CN/C=C2\C(=O)NC(=O)c3ccc(-c4ccc(Cl)cc4)cc32)cc(O)c1OC [Example 113, (4Z)-6-(4-Chlorophenyl)-4-{[(3-hydroxy-4,5-dimethoxybenzyl)amino]methylene}isoquinoline-1,3(2H,4H)-dione] |  |  |  |  |  |  |  |  |  |  |  |  |  | 47.6 µM | 6200 nM | 11000 nM | 37.2 µM | 2900 nM | 5800 nM | 240 to 241 °C | IC50 [7, 17]: 20 nM
O=C1NC(=O)c2ccc(Br)cc2/C1=C/Nc1ccc(CCN2CCCC2)cc1 [Example 176, 6-Bromo-4-{[4-(2-pyrrolidin-1-yl-ethyl)-phenylamino]-methylene}-4H-isoquinolin-1,3-dione] |  |  |  |  |  |  |  |  |  |  |  |  |  | > 50 µM | 3800 nM | 7200 nM | > 50 µM | 4500 nM | 3400 nM | 212 to 214 °C (dec.) | IC50 [7, 17]: 1300 nM
CC(C)N1CCN(c2ccc(N/C=C3\C(=O)NC(=O)c4ccc(-c5ccoc5)cc43)nc2)CC1 [Example 488, (4Z)-6-(3-Furyl)-4-({[5-(4-isopropylpiperazin-1-yl)pyridin-2-yl]amino}methylene)isoquinoline-1,3(2H,4H)-dione] | > 50 µM |  |  |  |  |  |  | > 50 µM | 430 nM | 2270 nM | 960 nM | 2410 nM | 3160 nM |  |  |  |  |  |  | 278 to 279 °C | 
